Experimental findings from patent US7994140B2, “Classes of compounds that interact with GPCRs” (Alchemia Limited, priority 2002, dated 2011) are described below.

Assay [1] addresses T1, SST5 (Homo sapiens, UniProt P35346).
T1 construct: purchased Perkin Elmer BioSignal; host or cells: HEK 293
In words: GPCR radioligand binding (RLB) assay, somatostatin SST5, [125I]SST-14. The note with it: 10 micromolar compound; recombinant human receptor membranes (HEK 293). The procedure: Recombinant human receptors expressed in HEK 293 cells were used for all experiments. Receptor membrane preparations were purchased from Perkin Elmer BioSignal. The labelled ligand used in somatostatin GPCR RLB assays was [^125I]SST-14 and in melanocortin assays was [^125I]NDP-αMSH. All assays were done in a 96-well plate format using either glass fiber filter mats or filter plates. All reagents purchased were of the highest quality.
Specific assay buffer, incubation and washing conditions were optimized for each receptor however they all followed the same general format. The procedures for both filter mat and filter plate formats are based on the receptor manufacturers recommendations or those described extensively in the literature. The procedures are briefly outlined below.
In assays where filter mats are used we incubate receptor membranes, assay buffer and [^125I] labelled ligand in 96 well microplates. Add compounds to incubation mixture and continue incubation for optimized period. Presoak Filter mat GF/B in 0.5% PEI for ˜2 hr at 4° C. On completion of assay mixture incubation add additional 100 μL/well of assay buffer immediately prior to filtration. Filter the assay mixture onto the GF/B filter mat using a cell harvester. Dry the filter mats prior to sealing them into a scintillation counting bag with scintillant. Radioactivity in each well is detected by liquid scintillation counting.
In assays where filter plates are used Multiscreen glass fiber filter plates (Millipore, Cat No MAFCNOB10) are precoated with 0.5% PEI for ˜2 hr at 4° C. All wells are then washed with 200 µl/well assay buffer and filtered using the Multiscreen Separation System. Subsequently receptor membranes, assay buffer and labelled ligands are added to the wells and equilibrated. Compounds for testing are then added to the mixture and incubation is continued for an optimized time. Plates are then put into the Multiscreen Separation System and the assay mixture is filtered through the plate under vacuum. Each well is then washed several times with assay buffer. Plates are then dried prior to putting sealing tape onto the bottom of the plate. Scintillant is added to each well and radioactivity measured by liquid scintillation counting.
Raw data was analysed according to standard methods using either GraphPad Prism software or IDDBS ActivityBase software.

Assay [2] concerns the target T2, MC4 (Homo sapiens, UniProt P32245).
T2 construct: purchased Perkin Elmer BioSignal; host or cells: HEK 293
In words: GPCR radioligand binding (RLB) assay, melanocortin MC4, [125I]NDP-αMSH. The note with it: for MC4 Inhibition at 4.0 Micromolar: Example Library 13; for MC4 Inhibition at 1.0 Micromolar: 1.0 micromolar compound. An outline of the steps:
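Membranes from HEK 293 cells expressing the recombinant human receptor were equilibrated with [125I]SST-14 (SST5) or [125I]NDP-αMSH (MC4), then compound added for an optimized incubation. Bound ligand separated by filtration on PEI-coated glass fiber and counted by liquid scintillation.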

T2 sequence (P32245 whole entry): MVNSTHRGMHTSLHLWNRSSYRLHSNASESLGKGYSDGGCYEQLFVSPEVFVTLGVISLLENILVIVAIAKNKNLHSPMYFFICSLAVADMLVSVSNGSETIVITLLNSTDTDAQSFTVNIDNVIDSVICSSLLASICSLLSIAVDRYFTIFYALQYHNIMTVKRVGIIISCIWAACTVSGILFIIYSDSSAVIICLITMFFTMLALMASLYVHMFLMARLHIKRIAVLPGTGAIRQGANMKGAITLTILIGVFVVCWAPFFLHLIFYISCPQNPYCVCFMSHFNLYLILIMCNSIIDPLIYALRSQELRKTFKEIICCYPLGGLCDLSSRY
T1 sequence (P35346 whole entry): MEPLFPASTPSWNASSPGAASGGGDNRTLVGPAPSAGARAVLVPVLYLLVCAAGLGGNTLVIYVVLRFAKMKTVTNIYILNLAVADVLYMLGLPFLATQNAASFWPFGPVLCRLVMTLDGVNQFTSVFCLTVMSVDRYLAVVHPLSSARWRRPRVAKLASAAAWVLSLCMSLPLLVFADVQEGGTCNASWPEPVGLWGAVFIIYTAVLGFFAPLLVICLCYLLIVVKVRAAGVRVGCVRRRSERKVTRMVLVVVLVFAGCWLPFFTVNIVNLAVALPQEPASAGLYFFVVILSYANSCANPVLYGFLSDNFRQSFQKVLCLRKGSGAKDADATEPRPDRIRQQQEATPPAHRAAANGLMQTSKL

As to `COC[C@H]1OC(OCc2ccc(-c3ccccc3)cc2)[C@H](NC(=O)CCNC(=N)N)[C@@H](OCc2ccc3ccccc3c2)[C@@H]1O` (stereo partly drawn) [Compound 2], the “SST5 inhibition at 10 micromolar” value in assay [1] is recorded as “+ (Indicates inhibition greater than . . . 50%)”.
With `COC[C@H]1OC(OCc2ccc(-c3ccccc3)cc2)[C@H](NC(=O)CCCN)[C@@H](OCc2ccccc2)[C@@H]1O` (stereo partly drawn) [Compound 3], in assay [1], the “SST5 inhibition at 10 micromolar” value is on record as “+ (Indicates inhibition greater than . . . 50%)”.
For the molecule `COC[C@H]1OC(OCc2ccc3ccccc3c2)[C@H](NC(=O)CCCN)[C@@H](OCc2ccccc2)[C@@H]1O` (stereo partly drawn) [Compound 4], the “SST5 inhibition at 10 micromolar” value in assay [1] was “+ (Indicates inhibition greater than . . . 50%)”.
`COC[C@H]1OC(OCc2ccccc2)[C@H](NC(=O)CCCN)[C@@H](OCc2ccc(-c3ccccc3)cc2)[C@@H]1O` (stereo partly drawn) [Compound 7]: the “SST5 inhibition at 10 micromolar” value in assay [1] is listed as “+ (Indicates inhibition greater than . . . 50%)”.
Same read-out and setting: for `COC[C@H]1OC(OCc2ccccc2)[C@H](NC(=O)CCCNC(=N)N)[C@@H](OCc2ccc(-c3ccccc3)cc2)[C@@H]1O` (stereo partly drawn) [Compound 8] the value was “+ (Indicates inhibition greater than . . . 50%)”; for `COC[C@H]1OC(OCc2ccccc2)[C@H](NC(=O)CCCN)[C@@H](OCc2ccccc2)[C@@H]1O` (stereo partly drawn) [Compound 9], “+ (Indicates inhibition greater than . . . 50%)”; for `COC[C@H]1OC(OCc2ccccc2)[C@H](NC(=O)CCNC(=N)N)[C@@H](OCc2ccc(Cl)cc2)[C@@H]1O` (stereo partly drawn) [Compound 10], “+ (Indicates inhibition greater than . . . 50%)”.
For the molecule `COC[C@H]1OC(OCc2ccccc2)[C@H](NC(=O)CCCN)[C@@H](OCc2ccc(Cl)cc2)[C@@H]1O` (stereo partly drawn) [Compound 11], in assay [1], the “SST5 inhibition at 10 micromolar” value is “+ (Indicates inhibition greater than . . . 50%)”.
`COC[C@H]1OC(OCc2ccccc2)[C@H](NC(=O)CCCNC(=N)N)[C@@H](OCc2ccc(Cl)cc2)[C@@H]1O` (stereo partly drawn) [Compound 12]: in assay [1], the “SST5 inhibition at 10 micromolar” value was “+ (Indicates inhibition greater than . . . 50%)”.
Same read-out and setting: with `COC[C@H]1OC(OCc2ccc(Cl)cc2)[C@H](NC(=O)CCCN)[C@@H](OCc2ccccc2)[C@@H]1O` (stereo partly drawn) [Compound 16] the entry was “+ (Indicates inhibition greater than . . . 50%)”; with `COC[C@H]1OC(OCc2ccc(Cl)cc2)[C@H](NC(=O)CCNC(=N)N)[C@@H](OCc2ccc(Cl)cc2)[C@@H]1O` (stereo partly drawn) [Compound 17], “+ (Indicates inhibition greater than . . . 50%)”; with `COC[C@H]1OC(OCc2ccc(Cl)cc2)[C@H](NC(=O)CCCNC(=N)N)[C@@H](OCc2ccc(Cl)cc2)[C@@H]1O` (stereo partly drawn) [Compound 18], “+ (Indicates inhibition greater than . . . 50%)”.
As to `COC[C@H]1OC(OCc2cccc(O)c2)[C@H](NC(=O)CCNC(=N)N)[C@@H](OCc2ccc(-c3ccccc3)cc2)[C@@H]1O` (stereo partly drawn) [Compound 21], the “SST5 inhibition at 10 micromolar” value in assay [1] is reported as “+ (Indicates inhibition greater than . . . 50%)”.
The same measure, in the same setting: with `COC[C@H]1OC(OCc2ccc(-c3ccccc3)cc2)[C@H](NC(=O)CCCN)[C@@H](OCc2cccc(O)c2)[C@@H]1O` (stereo partly drawn) [Compound 22] the entry was “+ (Indicates inhibition greater than . . . 50%)”.
`N=C(N)NCC(=O)NC1C(OCc2ccc(Cl)cc2)OC(COCc2ccccc2)C(O)C1OCc1ccc2ccccc2c1` (stereo not drawn) [Compound 483]: the “MC4 Inhibition at 4.0 Micromolar” value in assay [2] is listed as “+ (Indicates inhibition greater than . . . 50%)”.
For the molecule `N=C(N)NCC(=O)NC1C(OCc2ccc(Cl)cc2)OC(COCc2ccc(Cl)cc2)C(O)C1OCc1ccc2ccccc2c1` (stereo not drawn) [Compound 484], in assay [2], the “MC4 Inhibition at 4.0 Micromolar” value was “+ (Indicates inhibition greater than . . . 50%)”.
For `N=C(N)NCC(=O)NC1C(OCc2ccc(Cl)cc2)OC(COCc2ccc3ccccc3c2)C(O)C1OCc1ccc(-c2ccccc2)cc1` (stereo not drawn) [Compound 485], the “MC4 Inhibition at 4.0 Micromolar” value in assay [2] is recorded as “+ (Indicates inhibition greater than . . . 50%)”.
As to `N=C(N)NCC(=O)NC1C(OCc2ccc(Cl)cc2)OC(COCc2ccccc2)C(O)C1OCc1ccc(-c2ccccc2)cc1` (stereo not drawn) [Compound 486], in assay [2], the “MC4 Inhibition at 4.0 Micromolar” value is reported as “+ (Indicates inhibition greater than . . . 50%)”.
On to `N=C(N)NCC(=O)NC1C(OCc2ccc(Cl)cc2)OC(COCc2ccc(Cl)cc2)C(O)C1OCc1ccc(-c2ccccc2)cc1` (stereo not drawn) [Compound 487], for which the “MC4 Inhibition at 4.0 Micromolar” value in assay [2] is reported as “+ (Indicates inhibition greater than . . . 50%)”.
As to `N=C(N)NCCC(=O)NC1C(OCc2ccc(Cl)cc2)OC(COCc2ccc3ccccc3c2)C(O)C1OCc1ccc(Cl)cc1` (stereo not drawn) [Compound 488], the “MC4 Inhibition at 4.0 Micromolar” value in assay [2] is given as “+ (Indicates inhibition greater than . . . 50%)”.
On the same count and under the same terms, for `N=C(N)NCCC(=O)NC1C(OCc2ccc(Cl)cc2)OC(COCc2ccccc2)C(O)C1OCc1ccc(Cl)cc1` (stereo not drawn) [Compound 489] the value was “+ (Indicates inhibition greater than . . . 50%)”.
In the case of `N=C(N)NCCC(=O)NC1C(OCc2ccc(Cl)cc2)OC(COCc2ccc(Cl)cc2)C(O)C1OCc1ccc(Cl)cc1` (stereo not drawn) [Compound 490], the “MC4 Inhibition at 4.0 Micromolar” value in assay [2] is “+ (Indicates inhibition greater than . . . 50%)”.
With `N=C(N)NCCC(=O)NC1C(OCc2ccc(Cl)cc2)OC(COCc2ccc3ccccc3c2)C(O)C1OCc1ccc2ccccc2c1` (stereo not drawn) [Compound 491], in assay [2], the “MC4 Inhibition at 4.0 Micromolar” value was “+ (Indicates inhibition greater than . . . 50%)”.
On to `N=C(N)NCCC(=O)NC1C(OCc2ccc(Cl)cc2)OC(COCc2ccccc2)C(O)C1OCc1ccc2ccccc2c1` (stereo not drawn) [Compound 492], for which the “MC4 Inhibition at 4.0 Micromolar” value in assay [2] is “+ (Indicates inhibition greater than . . . 50%)”.
As to `N=C(N)NCCC(=O)NC1C(OCc2ccc(Cl)cc2)OC(COCc2ccc(Cl)cc2)C(O)C1OCc1ccc2ccccc2c1` (stereo not drawn) [Compound 493], the “MC4 Inhibition at 4.0 Micromolar” value in assay [2] is on record as “+ (Indicates inhibition greater than . . . 50%)”.
Same read-out and setting: with `N=C(N)NCCC(=O)NC1C(OCc2ccc(Cl)cc2)OC(COCc2ccc3ccccc3c2)C(O)C1OCc1ccc(-c2ccccc2)cc1` (stereo not drawn) [Compound 494] the entry was “+ (Indicates inhibition greater than . . . 50%)”; with `N=C(N)NCCC(=O)NC1C(OCc2ccc(Cl)cc2)OC(COCc2ccccc2)C(O)C1OCc1ccc(-c2ccccc2)cc1` (stereo not drawn) [Compound 495], “+ (Indicates inhibition greater than . . . 50%)”.
Still for that read-out and setting: with `N=C(N)NCCC(=O)NC1C(OCc2ccc(Cl)cc2)OC(COCc2ccc(Cl)cc2)C(O)C1OCc1ccc(-c2ccccc2)cc1` (stereo not drawn) [Compound 496] the entry was “+ (Indicates inhibition greater than . . . 50%)”; with `N=C(N)NCCCC(=O)NC1C(OCc2ccc(-c3ccccc3)cc2)OC(COCc2ccccc2)C(O)C1OCc1ccccc1` (stereo not drawn) [Compound 497], “+ (Indicates inhibition greater than . . . 50%)”.
Take `CC(=O)N[C@H]1C(NC(=O)CCN)O[C@H](CO)[C@@H](O)[C@@H]1OCc1ccccc1` (stereo partly drawn) [Compound 498]: the “MC4 Inhibition at 1.0 Micromolar” value in assay [2] is recorded as “+ (Indicates inhibition greater than . . . 50%)”.
For the molecule `CC(=O)N[C@H]1C(NC(=O)CCN)O[C@H](CO)[C@@H](O)[C@@H]1OCc1ccc(C)cc1` (stereo partly drawn) [Compound 499], in assay [2], the “MC4 Inhibition at 1.0 Micromolar” value is reported as “+ (Indicates inhibition greater than . . . 50%)”.
In the case of `CC(=O)N[C@H]1C(NC(=O)CCN)O[C@H](CO)[C@@H](O)[C@@H]1OCc1cccc2ccccc12` (stereo partly drawn) [Compound 500], the “MC4 Inhibition at 1.0 Micromolar” value in assay [2] is listed as “+ (Indicates inhibition greater than . . . 50%)”.
As to `CC(=O)N[C@H]1C(NC(=O)CCN)O[C@H](CO)[C@@H](O)[C@@H]1OCc1ccc(-c2ccccc2)cc1` (stereo partly drawn) [Compound 501], in assay [2], the “MC4 Inhibition at 1.0 Micromolar” value was “+ (Indicates inhibition greater than . . . 50%)”.
As for `NCCC(=O)NC1O[C@H](CO)[C@@H](O)[C@H](OCc2ccccc2)[C@H]1NC(=O)c1ccccc1` (stereo partly drawn) [Compound 502], the “MC4 Inhibition at 1.0 Micromolar” value in assay [2] is on record as “+ (Indicates inhibition greater than . . . 50%)”.
With `NCCC(=O)NC1O[C@H](CO)[C@@H](O)[C@H](OCc2ccc(Cl)cc2)[C@H]1NC(=O)c1ccccc1` (stereo partly drawn) [Compound 503], the “MC4 Inhibition at 1.0 Micromolar” value in assay [2] is recorded as “+ (Indicates inhibition greater than . . . 50%)”.
On the same count and under the same terms, for `Cc1ccc(CO[C@H]2[C@H](O)[C@@H](CO)OC(NC(=O)CCN)[C@@H]2NC(=O)c2ccccc2)cc1` (stereo partly drawn) [Compound 504] the value was “+ (Indicates inhibition greater than . . . 50%)”; for `NCCC(=O)NC1O[C@H](CO)[C@@H](O)[C@H](OCc2cccc3ccccc23)[C@H]1NC(=O)c1ccccc1` (stereo partly drawn) [Compound 505], “+ (Indicates inhibition greater than . . . 50%)”; for `NCC(=O)NC1O[C@H](CO)[C@@H](O)[C@H](OCc2ccccc2)[C@H]1NC(=O)c1ccccc1` (stereo partly drawn) [Compound 506], “+ (Indicates inhibition greater than . . . 50%)”.
Turning to `NCC(=O)NC1O[C@H](CO)[C@@H](O)[C@H](OCc2ccc(Cl)cc2)[C@H]1NC(=O)c1ccccc1` (stereo partly drawn) [Compound 507], in assay [2], the “MC4 Inhibition at 1.0 Micromolar” value is listed as “+ (Indicates inhibition greater than . . . 50%)”.
